Assay [1] concerns the target T1, SARS-CoV-2 PLpro (nsp3 1564–1878) (Severe acute respiratory syndrome coronavirus 2, UniProt P0DTD1). Put plainly: biochemical. The arrangement: FRET-quenched peptide (Pro3) cleavage by PLpro, 10 min pre-incubation, slope over 20 min, normalised to no-compound control. The note with it: read-out: % of control remaining.
The target in assay [2] is T1, SARS-CoV-2 PLpro (nsp3 1564–1878). Briefly: biochemical. Particulars: read-out: % of control remaining. Also on record: FRET-quenched peptide (Pro3) cleavage by PLpro, 10 min pre-incubation, slope over 20 min, normalised to no-compound control. This is another data set of the same source.

Counter-ions that a name gives are not always drawn. Like-named read-outs stand apart in the source and are kept apart here.

As to `CC(=O)NCC(=O)O` [N-Acetylglycine], the remaining activity at 1.25 µM in assay [1] (Well no.=6779, low concentration screen) was found to be 96.3%. In addition, in assay [2] (Well no.=6779, high concentration screen), the remaining activity at 3.75 µM amounted to 96%.
Consider `CC(=O)N[C@H]1[C@H]([C@H](O)[C@H](O)CO)OC(O)(C(=O)O)C[C@@H]1O` (some centres unmarked) [N-Acetylneuraminic acid], for which, in assay [1] (Well no.=6491, low concentration screen), the remaining activity at 1.25 µM is 92.4%. In addition, in assay [2] (Well no.=6491, high concentration screen), the remaining activity at 3.75 µM was found to be 94.5%.
With `CC(=O)N[C@@H](CCCN)C(=O)O` [N-Acetylornithine], the remaining activity at 1.25 µM in assay [1] (Well no.=7731, low concentration screen) worked out at 102%; in assay [1] (Well no.=8748, low concentration screen) it was 99.4%. Further, the remaining activity at 3.75 µM stood at 104% in assay [2] (Well no.=7731, high concentration screen) and 98.7% in assay [2] (Well no.=8748, high concentration screen).
Turning to `CCN(CC)CCNC(=O)c1ccc(NC(C)=O)cc1` [N-Acetylprocainamide hydrochloride], the remaining activity at 1.25 µM in assay [1] (Well no.=19, low concentration screen) worked out at 104%. Moreover, the remaining activity at 3.75 µM in assay [2] (Well no.=19, high concentration screen) came out at 103%.
In the case of `CC(=O)NCCc1c[nH]c2ccccc12` [N-Acetyltryptamine], the remaining activity at 1.25 µM in assay [1] (Well no.=100, low concentration screen) stood at 97.2%. In addition, the remaining activity at 3.75 µM in assay [2] (Well no.=100, high concentration screen) is 96.6%.
As to `O=[N+]([O-])c1ccc(S(=O)(=O)NCc2ccccc2)c([N+](=O)[O-])c1` [N-Benzyl-2,4-dinitrobenzenesulfonamide], in assay [1] (Well no.=6125, low concentration screen), the remaining activity at 1.25 µM stood at 98.4%. In assay [2] (Well no.=6125, high concentration screen), the remaining activity at 3.75 µM is 102%.
For `CC(=O)NBr` [N-Bromoacetamide], the remaining activity at 1.25 µM in assay [1] (Well no.=171, low concentration screen) was 101%. Moreover, the remaining activity at 3.75 µM in assay [2] (Well no.=171, high concentration screen) came to 98.1%.
As to `Clc1ccc2c(c1)N=C(N1CCNCC1)c1ccccc1N2` [N-Desmethylclozapine], the remaining activity at 1.25 µM in assay [1] (Well no.=7229, low concentration screen) is 100%. For the same molecule, the remaining activity at 3.75 µM in assay [2] (Well no.=7229, high concentration screen) was 98.9%.
`CCN1C(=O)C=CC1=O` [N-Ethylmaleimide]: the remaining activity at 1.25 µM amounted to 102% in assay [1] (Well no.=461, low concentration screen) and 88.4% in assay [1] (Well no.=4101, low concentration screen). The remaining activity at 3.75 µM in assay [2] (Well no.=461, high concentration screen) is 101%; in assay [2] (Well no.=4101, high concentration screen), 95.8%.
For `COc1cc2c(c(OC)c1OC)-c1ccc(OC)c(=O)cc1[C@@H](NC=O)CC2` [N-Formyl-Deacetylcolchicine], in assay [1], the remaining activity at 1.25 µM came to 102%. Moreover, the remaining activity at 3.75 µM in assay [2] amounted to 103%.
Consider `CC(C)CC(=O)NCC(=O)O` [N-Isovaleroylglycine], for which the remaining activity at 1.25 µM in assay [1] (Well no.=6643, low concentration screen) was 110%. Besides, the remaining activity at 3.75 µM in assay [2] (Well no.=6643, high concentration screen) was determined as 122%.
Consider `CCCCC/C=C\C/C=C\CCCCCCCC(=O)NCC(=O)O` [N-Linoleoylglycine], for which the remaining activity at 1.25 µM in assay [1] (Well no.=4595, low concentration screen) turned out to be 95%. Also, the remaining activity at 3.75 µM in assay [2] (Well no.=4595, high concentration screen) amounted to 94.3%.
As for `CN1C[C@H](O)[C@@H](O)[C@H](O)[C@H]1CO` [N-Methyl-1-deoxynojirimycin], in assay [1] (Well no.=1016, low concentration screen), the remaining activity at 1.25 µM worked out at 99.2%. Further, the remaining activity at 3.75 µM in assay [2] (Well no.=1016, high concentration screen) was 98.3%.
Regarding `CN[C@H](CC(=O)O)C(=O)O` [N-Methyl-D-aspartic acid], the remaining activity at 1.25 µM in assay [1] (Well no.=1020, low concentration screen) is 103%. Also, in assay [2] (Well no.=1020, high concentration screen), the remaining activity at 3.75 µM was 105%.
In the case of `CNC(=O)c1cc2c(cn1)[nH]c1ccccc12` [N-Methyl-beta-carboline-3-carboxamide], the remaining activity at 1.25 µM in assay [1] (Well no.=655, low concentration screen) is 96.4%. Moreover, the remaining activity at 3.75 µM in assay [2] (Well no.=655, high concentration screen) came to 94.2%.
With `CNCCc1ccc(O)c(O)c1` [N-Methyldopamine hydrochloride], the remaining activity at 1.25 µM in assay [1] (Well no.=693, low concentration screen) amounted to 90.9%. Further, the remaining activity at 3.75 µM in assay [2] (Well no.=693, high concentration screen) is 91.2%.
As for `CN1CC(=O)NC1=O` [N-Methylhydantoin], the remaining activity at 1.25 µM in assay [1] (Well no.=6395, low concentration screen) is 95.6%. In addition, the remaining activity at 3.75 µM in assay [2] (Well no.=6395, high concentration screen) amounted to 98.5%.
For `CN(C)CC(=O)O` [N-Methylsarcosine], the remaining activity at 1.25 µM in assay [1] (Well no.=6873, low concentration screen) came out at 104%. Besides, in assay [2] (Well no.=6873, high concentration screen), the remaining activity at 3.75 µM was found to be 102%.
For the molecule `CCCCCCCC/C=C\CCCCCCCC(=O)NCCO` [N-Oleoylethanolamine], the remaining activity at 1.25 µM in assay [1] (Well no.=1086, low concentration screen) turned out to be 96.9%. Also, the remaining activity at 3.75 µM in assay [2] (Well no.=1086, high concentration screen) came to 94.6%.
In the case of `CCCCCCCC/C=C\CCCCCCCC(=O)NCC(=O)O` [N-Oleoylglycine], in assay [1] (Well no.=5803, low concentration screen), the remaining activity at 1.25 µM was 104%. Besides, in assay [2] (Well no.=5803, high concentration screen), the remaining activity at 3.75 µM was 106%.
`O=C(O)CNC(=O)C(=O)O` [N-Oxalylglycine]: in assay [1] (Well no.=5387, low concentration screen), the remaining activity at 1.25 µM worked out at 97.9%. Moreover, the remaining activity at 3.75 µM in assay [2] (Well no.=5387, high concentration screen) was found to be 92.4%.
Consider `O=C(O)c1ccccc1Nc1ccccc1` [N-Phenylanthranilic acid], for which, in assay [1] (Well no.=51, low concentration screen), the remaining activity at 1.25 µM is 101%. Also, the remaining activity at 3.75 µM in assay [2] (Well no.=51, high concentration screen) is 95.6%.
Turning to `CCCOC(=O)c1cc(O)c(O)c(O)c1` [N-Propyl gallate], the remaining activity at 1.25 µM in assay [1] (Well no.=3987, low concentration screen) worked out at 104%. The remaining activity at 3.75 µM in assay [2] (Well no.=3987, high concentration screen) stood at 102%.
As to `O=C(O)CCC(=O)N1CCC[C@H]1C(=O)O` [N-Succinyl-L-proline], in assay [1] (Well no.=1506, low concentration screen), the remaining activity at 1.25 µM came out at 89.9%. The remaining activity at 3.75 µM in assay [2] (Well no.=1506, high concentration screen) turned out to be 91.2%.
As for `CCCCCCCCC(=O)NCc1ccc(O)c(OC)c1` [N-Vanillylnonanamide], the remaining activity at 1.25 µM in assay [1] amounted to 96.7%. The remaining activity at 3.75 µM in assay [2] turned out to be 96.6%.
On to `CC(ONC(=O)c1cc(C(F)(F)F)cc(C(F)(F)F)c1)C(=O)Nc1ccc(Cl)cc1` (centres unmarked) [N-[2-(4-chloroanilino)-1-methyl-2-oxoethoxy]-3,5-bis(trifluoromethyl)benzamide], for which the remaining activity at 1.25 µM in assay [1] (Well no.=5698, low concentration screen) turned out to be 101%. Also, the remaining activity at 3.75 µM in assay [2] (Well no.=5698, high concentration screen) amounted to 103%.
`Cc1ccc(F)cc1C(=O)Nc1ccc(C(=O)N2Cc3cccn3Cc3ccccc32)c(Cl)c1` [N-[3-chloro-4-(5H-pyrrolo[2,1-c][1,4]benzodiazepin-10(11H)-ylcarbonyl)phenyl]-5-fluoro-2-methylbenzamide]: the remaining activity at 1.25 µM in assay [1] (Well no.=5601, low concentration screen) turned out to be 103%. Besides, the remaining activity at 3.75 µM in assay [2] (Well no.=5601, high concentration screen) came to 107%.
For `CN(C)[C@@H]1CCc2[nH]c3ccc(NC(=O)c4ccc(F)cc4)cc3c2C1` [N-[(3R)-3-(dimethylamino)-2,3,4,9-tetrahydro-1H-carbazol-6-yl]-4-fluorobenzamide hydrochloride], in assay [1] (Well no.=6008, low concentration screen), the remaining activity at 1.25 µM came out at 97.7%. Also, the remaining activity at 3.75 µM in assay [2] (Well no.=6008, high concentration screen) was 95.9%.
`Nc1ccc(CNc2ncnc3c2ncn3[C@@H]2O[C@H](CO)[C@@H](O)[C@H]2O)cc1` [N-[(4-Aminophenyl)methyl]adenosine]: the remaining activity at 1.25 µM in assay [1] (Well no.=8319, low concentration screen) came to 104%; in assay [1] (Well no.=8895, low concentration screen) it was 102%. Besides, the remaining activity at 3.75 µM in assay [2] (Well no.=8319, high concentration screen) was determined as 100%; in assay [2] (Well no.=8895, high concentration screen) it was 99.6%.
In the case of `Cc1ccccc1C(C(=O)NC1CCCCC1)N(C(=O)Cn1ccnc1C)c1cccc(F)c1` (centres unmarked) [N-cyclohexyl-2-(N-(3-fluorophenyl)-2-(2-methyl-1H-imidazol-1-yl)acetamido)-2-(o-tolyl)acetamide], the remaining activity at 1.25 µM in assay [1] (Well no.=5600, low concentration screen) is 93.6%. The remaining activity at 3.75 µM in assay [2] (Well no.=5600, high concentration screen) was determined as 95.4%.
Regarding `O=C(Nc1cccc(C(F)(F)F)c1)Nc1cc(S(=O)(=O)NC2CC2)ccc1-c1ccsc1` [N-cyclopropyl-4-(thiophen-3-yl)-3-(3-(3-(trifluoromethyl)phenyl)ureido)benzenesulfonamide], the remaining activity at 1.25 µM in assay [1] (Well no.=5549, low concentration screen) worked out at 100%. In addition, the remaining activity at 3.75 µM in assay [2] (Well no.=5549, high concentration screen) was determined as 103%.

The values above are taken from PMC8286840, “Identifying SARS-CoV-2 antiviral compounds by screening for small molecule inhibitors of Nsp3 papain-like protease” (Biochemical Journal, 2021).
